In patent US7744921B2, “Liposome loading with metal ions” (Celator Pharmaceuticals, Inc., priority 2001, dated 2010):
“Also recorded” adds a separate entry of the source. Like-named read-outs stand apart in the source and are kept apart here.

Experiments:
[1] = Active (metal-based, citrate or ionophore) loading of drug into liposomes; spin column, drug-to-lipid ratio; format: physicochemical
Protocol: Lipids were dissolved in chloroform solution and subsequently dried under a stream of nitrogen gas and placed in a vacuum pump to remove solvent. Unless otherwise specified, trace levels of radioactive lipid 3H-CHE were added to quantify lipid during the formulation process. The resulting lipid film was placed under high vacuum for a minimum of 2 hours. The lipid film was hydrated in the solution indicated to form multilamellar vesicles (MLVs). The resulting preparation was extruded 10 times through stacked polycarbonate filters with an extrusion apparatus (Lipex Biomembranes, Vancouver, BC) to achieve a mean liposome size between 80 and 150 nm. All constituent lipids of liposomes are reported in mole %.
At various time points after initiation of drug loading, aliquots were removed and passed through a Sephadex G-50 spin column to separate free from encapsulated drug. To a specified volume of eluant, Triton X-100 or N-ocyl beta-D-glucopyranoside (OGP) was added to solubilize the liposomes. Following addition of detergent, the mixture was heated to the cloud point of the detergent and allowed to cool to room temperature before measurement of the absorbance or fluorescence. Drug concentrations were calculated by comparison to a standard curve.
In order to determine whether copper loading of irinotecan in the absence of a pH gradient could occur using a cholesterol-free formulation, DSPC/DSPG (80:20 mole ratio) liposomes containing copper(II) gluconate were prepared with an external and internal pH of 7.4. […] The lipid films were hydrated in 100 mM Cu(II) gluconate adjusted to pH 7.4 with triethanolamine (TEA) and extruded at 70° C. […] Irinotecan was added to the liposome preparation at a 0.1:1 drug-to-lipid mole ratio and incubated at 50° C. The extent of drug loading was determined as described in the methods by measuring absorbance at 370 nm and lipid levels were determined by liquid scintillation counting.
Loading of daunorubicin into DSPC/DSPG (90:10 mole ratio) liposomes containing encapsulated CuSO4 buffered to pH 7.4 was also investigated. […] A solution of 150 mM CuSO4, 20 mM histidine (adjusted to pH 7.4 using TEA), was employed as the hydration medium and MLVs were extruded at 70° C. […] Daunorubicin was loaded at a 0.1:1 drug/lipid weight ratio. A drug-to-lipid ratio at various time points during loading was determined by measuring absorbance at 480 nm after solubilization in detergent to quantify daunorubicin as described; lipid levels were determined by liquid scintillation counting.
The liposomes were prepared as described in the methods by hydrating lipid films in a solution of 100 mM copper(II) gluconate adjusted to pH 7.4 with TEA. Liposomes were extruded at 65° C. and the external buffer of the liposomes was exchanged to SHE, pH 7.4 by tangential flow dialysis. Liposomes were incubated with irinotecan at a 0.1:1 drug-to-lipid weight ratio at 50° C. and the extent of drug loading was determined as described by measuring absorbance at 370 nm after solubilization by detergent.
In addition to copper loading, loading of drug using MnSO4 containing liposomes in the absence of a pH gradient was also investigated. […] Lipids films were prepared as described and hydrated in 300 mM MnSO4 buffered to pH 7.4 with 20 mM imidazole (initial pH was adjusted to 7.4 with concentrated HCl) and extrusion was carried out at 70° C. The samples were run down a Sephadex G-50 column to exchange the exterior buffer with SHE, pH 7.4.

[2] = Plasma drug-to-lipid ratio 24 hours after intravenous administration of daunorubicin liposomes; format: in vivo; conditions: DSPC/DSPE-PEG2000 (95:5) liposomes with citrate pH 4.0, CuSO4 or MnSO4; Balb/c mice, lipid 100 mg/kg, daunorubicin 10 mg/kg
Protocol: DSPC/DSPE-PEG2000 liposomes were prepared as described and extruded at 75° C. The external solution was exchanged to HBS by dialysis against HBS. […] Plasma lipid concentrations were determined by liquid scintillation counting. […] The resulting mixture was mixed and 2 mL of 1:1 isopropanol/chloroform was added followed by vortexing. The samples were frozen at −20° C. overnight or −80° C. for 1 hour to promote protein aggregation, brought to room temperature, vortexed and centrifuged at 3000 rpm for 10 minutes.

[3] = Active (metal-based, citrate or ionophore) loading of drug into liposomes; spin column, drug-to-lipid ratio; format: physicochemical; remark: listed apart in the source

COc1cccc2c1C(=O)c1c(O)c3c(c(O)c1C2=O)C[C@@](O)(C(C)=O)C[C@@H]3O[C@H]1C[C@H](N)[C@H](O)[C@H](C)O1 [daunorubicin]
added drug encapsulated [1]: > 90% | encapsulation compared to CuCl2 (in words) [1]: not as efficient | loading (in words) [1]: most efficient; also recorded: occurred to a lesser extent; also recorded: less efficient | daunorubicin to lipid ratio achieved ([1]; DSPC/DSPE-PEG2000 (95:5), 300 mM MnSO4, loading temperature 60° C.): 0.07 mol:mol | drug encapsulation ([1]; DSPC/DSPE-PEG2000 (95:5), 300 mM NiSO4, SHE pH 7.4, weight ratio 0.2:1, 60° C., within 5 minutes): greater than 75% | loading (in words) ([1]; pH 7.4): efficiently load | uptake into liposomes ([1]; pH 7.4): 100% | plasma drug-to-lipid ratio 24 hours after intravenous administration (in words) [2]: differing plasma drug-to-lipid ratios | drug encapsulation [3]: 80% | encapsulation [3]: > 95%
